Patent US7427625B2, “Substituted thiatriazaacenaphthylene-6-carbonitrile kinase inhibitors” (Janssen Pharmaceutica, N.V., priority 2006, dated 2008)

Columns and labels:
[1] = biological target: T1, Aurora-A (Mus musculus, UniProt P97477); experiment: Aurora-A Screening Assay; assay type: biochemical, murine; conditions: for inhibition at 1 µM: test concentration of 1 μM, read-out: Aurora-A percent inhibition
T1 construct: followed by the full length protein encoding the murine Aurora-A; polyhistidine (N); made in house; host or cells: sf9 insect cells
T1 sequence (P97477 1-395): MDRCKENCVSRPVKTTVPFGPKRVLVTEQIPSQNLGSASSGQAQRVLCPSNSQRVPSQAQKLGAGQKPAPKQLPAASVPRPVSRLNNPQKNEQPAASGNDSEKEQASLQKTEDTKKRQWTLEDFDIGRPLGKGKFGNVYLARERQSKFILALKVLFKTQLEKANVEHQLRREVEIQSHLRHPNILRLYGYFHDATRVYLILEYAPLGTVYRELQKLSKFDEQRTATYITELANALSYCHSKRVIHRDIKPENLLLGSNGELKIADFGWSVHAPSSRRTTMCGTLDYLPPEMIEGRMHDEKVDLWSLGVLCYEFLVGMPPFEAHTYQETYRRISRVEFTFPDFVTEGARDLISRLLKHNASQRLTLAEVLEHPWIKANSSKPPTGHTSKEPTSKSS
Procedure: (§1) A kinase reaction mixture was prepared containing 50 mM Tris-HCl at pH 8, 10 mM, MgCl20.1 mM […], 1 mM DTT, 10 μM ATP, 0.025 μM biotinylated histone-H1 peptide substrate and 0.2 μCuries per well ^33P-γ-ATP (2000-3000 Ci/mmol). 70 μL of the kinase reaction mixture was dispensed into the well of a Streptavidin FlashPlate.
(§2) Test compound stock in 100% DMSO (1 μL) was added to the wells resulting in a final concentration of 1% DMSO in the reaction with a 100 μL final reaction volume. Each enzyme was diluted in 50 mM Tris-HCl pH=8.0, 0.1% BSA and 30 μL was added to each well to initiate the reaction. The reaction was incubated for one hour at 30° C. At the end of the 1 hr incubation, the reaction was terminated by aspirating the mixture from the plate and washing the wells twice with PBS containing 100 mM EDTA. The biotinylated peptide substrate became immobilized on the Flashplate^198 and the incorporation of ^33P-γ-ATP was measured by reading the plate on a scintillation counter. Inhibition of the enzymatic activity was measured by observing a reduced amount of ^33P-γ-ATP incorporated into the immobilized peptide.
Aurora-A is a fusion protein containing a polyhistidine tag at the N terminus followed by the full length protein encoding the murine Aurora-A (Accession number GB BC014711) expressed and purified from sf9 insect cells. The assay used 400 ng of the N-terminal biotinylated peptide biotin-GRTGRRNSI-amide (Aurora-A) per well.
(§3) The IC50 was derived according to the procedure described in Example 2. For those compounds without an IC50, the percent inhibition results are shown at a test concentration of 1 μM.

[2] = biological target: T2, HER-2 (Homo sapiens, UniProt P04626); experiment: HER-2 Kinase Assay; assay type: biochemical; conditions: for inhibition at 1 µM: test concentration of 1 μM, read-out: HER-2 percent inhibition
T2 construct: the nucleotides encoding amino acids 679 to 1255 of HER-2; purchased Proqinase (Freiburg, Germany)
Procedure: HER-2 kinase was purified at Proqinase (Freiburg, Germany) from a construct that consisted of a fusion of GST (Glutathione-S-Transferase), HIS6-Thrombin and the nucleotides encoding amino acids 679 to 1255 of HER-2.
A mixture of a 10× kinase reaction buffer (600 mM Hepes at pH 7.5, 30 mM Magnesium Chloride, 0.03 mM Sodium Vanadate and 500 μg/mL PEG 20,000), DTT (1.2 mM final from a 10 mM stock), ATP (1 μM from a 10 mM stock), biotinylated polyGluTyr (1.5 ng/μL final from stock of 1 μg/μL prepared by Upstate Biotechnologies, Lake Placid, N.Y.), Manganese Chloride (3 mM final from a 1 M stock), γ-^33P-ATP (10 μCi/μL stock) and water (70 μL/well) was added to each well of a Streptavidin Flashplate (Cat. #SMP103, NEN, Boston, Mass.).
Test compound stock (1 μL) was added to the appropriate wells. Diluted GSTHER2 kinase (6.7 ng/μL diluted into 50 mM Tris-HCl at pH 8.0 and 0.1% bovine serum albumin) (30 μL) was added (total volume of 200 ng/well) to initiate the reactions.
The reaction plates were incubated at 30° C. for 1 hr. The reaction was terminated by aspiring the reaction mixture from the plate wells and washing the wells three times with a 1×PBS stop buffer (300 μL) and 100 mM EDTA. After the final wash, the same stop buffer (200 μL) was again added to the wells. The plates were then sealed and read on the TopCount scintillation counter.
as §3

[3] = biological target: T3, EGFR (Homo sapiens, UniProt P00533); experiment: EGFR Kinase Assay; assay type: biochemical; conditions: for inhibition at 2 µM: test concentration of 2 μM, read-out: EGFR percent inhibition
T3 construct: The intracellular portion of EGFR started at nucleotide 2189 (corresponding to amino acid 667) and ended at the termination codon; made in house; host or cells: Sf9 insect cells (baculovirus)
Excerpt: The EGFR kinase used was a fusion of Glutathione-S-Transferase (GST) and a PCR amplified intracellular portion of EGFR (NM_005228). The intracellular portion of EGFR started at nucleotide 2189 (corresponding to amino acid 667) and ended at the termination codon. The portion was PCR amplified with primers that added the lambda attB sequences to each end, recombined into an entry vector, then into a GST destination vector (as described in Gateway Technologies Manual by Invitrogen Corporation, Carlsbad, Calif.).
The destination vector was recombined in the DH10BAC strain of bacteria to produce a bacmid. The bacmid was transfected into Sf 9 cells and the supernatant containing the baculovirus was collected. The GSTEGFR protein was purified using large cultures of Sf 9 cells infected with stock virus. After an appropriate period of time, the cells were collected and lysed. The GSTEGFR was then purified from the lysate on Glutathione-Sepharose columns (as described by Amersham Biosciences, Buckinghamshire, United Kingdom).
The EGFR substrate was prepared by biotinylating polyGluTyr (128 mg) (Sigma, St. Louis, Mo.) in a 1×PBS buffer incubated together with a 12-fold molar excess of Sulfo-NHS-LC-Biotin on ice for at least 2 hrs. The free biotin was separated from the biotinylated polyGluTyr on a gel filtration column.
A mixture of a 10× kinase buffer (500 mM Tris at pH 8.0, 100 mM Magnesium Chloride and 1 mM Sodium Vanadate), DTT (1 mM final from 500 mM stock), ATP (5 μM final from 10 mM stock), biotinylated polyGluTyr (10 μg/μL stock), γ-^33P ATP (10 μCi/μL stock) and water was added to each well (90 μL/well) of a Streptavidin Flashplate (Perkin Elmer, Wellesley, Mass.).
Test compound in 100% DMSO (2 μL) was added to the appropriate wells. Diluted GSTEGFR (1:300 dilution in 50 mM Tris at pH 8.0 and 0.1% bovine serum albumin) (10 μL) was added to the wells to initiate the reactions.
The plates were incubated at 30° C. for 1 hr with shaking. The reacted contents were removed and the plates were sequentially washed three times with a 1×PBS stop buffer (300 μL without Magnesium and Calcium) and 100 mM EDTA. After the final wash, the same stop buffer (200 μL) was added to the wells. The plates were then sealed and read on the TopCount scintillation counter.
Test compounds were assayed in triplicate at 16 concentrations at half-log dilutions starting at 200 uM. A maximum and minimum signal for the assay was determined on each plate. The percent inhibition of a test compound was calculated according to the formula
For a series of test concentrations, the IC50 was derived by graphing percent inhibition against the log of the concentrations tested for a given compound. For those compounds without an IC50, the percent inhibition results are shown at a test concentration of 2 μM.

[4] = biological target: T4, VEGF-R2 (Rattus norvegicus, UniProt O08775); experiment: VEGF-R2 Screening Assay; assay type: biochemical; conditions: for inhibition at 1 µM: test concentration of 1 μM, read-out: VEGF-R2 percent inhibition
T4 construct: polyhistidine (N)
Procedure: as §1, §2
The VEGF-R2 enzyme is a fusion protein containing a polyhistidine tag at the N terminus followed by amino acids 786 to 1343 of the rat VEGF-R2 kinase domain (Accession number U93306). The assay used 150 ng of the N-terminal biotinylated peptide biotin-KHKKLAEGSAYEEV-amide (VEGF-R2) per well.
as §3

T3 sequence (P00533 669-1210 limits assumed): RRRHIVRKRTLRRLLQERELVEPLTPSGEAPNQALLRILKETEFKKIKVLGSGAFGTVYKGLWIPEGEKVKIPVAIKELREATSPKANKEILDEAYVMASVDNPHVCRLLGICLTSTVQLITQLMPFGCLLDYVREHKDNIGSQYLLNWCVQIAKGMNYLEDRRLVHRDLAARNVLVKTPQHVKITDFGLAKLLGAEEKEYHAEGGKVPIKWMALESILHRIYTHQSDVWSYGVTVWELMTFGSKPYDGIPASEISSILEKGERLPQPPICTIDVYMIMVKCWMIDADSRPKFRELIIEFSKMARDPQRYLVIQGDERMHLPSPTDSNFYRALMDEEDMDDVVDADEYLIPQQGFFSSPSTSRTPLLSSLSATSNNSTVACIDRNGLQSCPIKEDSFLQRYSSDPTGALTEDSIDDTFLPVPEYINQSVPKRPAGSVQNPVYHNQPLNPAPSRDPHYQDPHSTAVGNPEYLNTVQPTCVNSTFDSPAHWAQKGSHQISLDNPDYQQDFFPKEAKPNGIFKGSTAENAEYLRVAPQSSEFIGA
T4 sequence (O08775 786-1343): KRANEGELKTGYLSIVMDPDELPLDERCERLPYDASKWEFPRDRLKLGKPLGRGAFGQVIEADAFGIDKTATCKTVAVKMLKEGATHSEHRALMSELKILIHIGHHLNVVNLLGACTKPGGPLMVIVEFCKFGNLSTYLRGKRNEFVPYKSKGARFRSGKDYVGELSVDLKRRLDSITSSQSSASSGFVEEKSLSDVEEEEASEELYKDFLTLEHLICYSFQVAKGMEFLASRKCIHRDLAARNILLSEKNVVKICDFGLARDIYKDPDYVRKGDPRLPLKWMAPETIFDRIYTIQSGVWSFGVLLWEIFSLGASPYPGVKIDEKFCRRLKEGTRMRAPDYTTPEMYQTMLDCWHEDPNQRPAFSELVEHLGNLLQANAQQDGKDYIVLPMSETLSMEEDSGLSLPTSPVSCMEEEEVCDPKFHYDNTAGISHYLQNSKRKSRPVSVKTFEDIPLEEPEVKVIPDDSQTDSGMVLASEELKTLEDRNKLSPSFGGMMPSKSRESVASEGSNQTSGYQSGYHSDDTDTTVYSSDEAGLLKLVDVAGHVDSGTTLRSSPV
T2 sequence (P04626 679-1255): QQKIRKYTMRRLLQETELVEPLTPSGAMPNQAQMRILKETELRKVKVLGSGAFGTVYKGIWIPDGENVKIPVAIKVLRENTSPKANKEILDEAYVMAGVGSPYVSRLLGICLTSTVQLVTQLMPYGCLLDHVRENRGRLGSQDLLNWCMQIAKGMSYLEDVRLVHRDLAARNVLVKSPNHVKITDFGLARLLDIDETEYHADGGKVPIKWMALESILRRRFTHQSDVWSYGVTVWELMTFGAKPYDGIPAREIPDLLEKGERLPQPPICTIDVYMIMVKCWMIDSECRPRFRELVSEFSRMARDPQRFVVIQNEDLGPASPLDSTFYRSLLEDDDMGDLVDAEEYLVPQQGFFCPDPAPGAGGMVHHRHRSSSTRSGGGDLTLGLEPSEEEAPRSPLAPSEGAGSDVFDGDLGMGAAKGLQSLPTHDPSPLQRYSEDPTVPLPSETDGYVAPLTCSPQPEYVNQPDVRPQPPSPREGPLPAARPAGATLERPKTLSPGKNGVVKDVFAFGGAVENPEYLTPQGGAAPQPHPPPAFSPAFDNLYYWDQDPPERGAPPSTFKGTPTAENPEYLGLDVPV

SMILES | inhibition at 1 µM [1] [%] | inhibition at 1 µM [2] [%] | inhibition at 2 µM [3] [%] | inhibition at 1 µM [4] [%] | IC50 [1] [µM] | IC50 [2] [µM] | IC50 [3] [µM] | IC50 [4] [µM]
CN1CCCCC1COc1ccc(NC(=O)c2sc3ncc(C#N)c4c3c2NC(=O)N4c2c(Cl)ccc3c2OCO3)cc1 (stereo not drawn) [Cpd 32, 5-(5-chloro-benzo[1,3]dioxol-4-yl)-6-cyano-4-oxo-4,5-dihydro-3H-1-thia-3,5,8-triaza-acenaphthylene-2-carboxylic acid [4-(1-methyl-piperidin-2-ylmethoxy)-phenyl]-amide] | 13 | 22 | 35 | 1 |  |  |  | 
N#Cc1cnc2sc(C(=O)Nc3ccc(CN4CCC(N)CC4)cc3)c3c2c1N(c1c(Cl)ccc2c1OCO2)C(=O)N3 [Cpd 47, 5-(5-chloro-benzo[1,3]dioxol-4-yl)-6-cyano-4-oxo-4,5-dihydro-3H-1-thia-3,5,8-triaza-acenaphthylene-2-carboxylic acid [4-(4-amino-piperidin-1-ylmethyl)-phenyl]-amide] |  |  |  |  | > 100 | 1.87 | 0.514 | > 100
COC1CCN(Cc2ccc(NC(=O)c3sc4ncc(C#N)c5c4c3NC(=O)N5c3ccc(Oc4ccccc4)cc3)cc2)CC1 [Cpd 51, 6-cyano-4-oxo-5-(4-phenoxy-phenyl)-4,5-dihydro-3H-1-thia-3,5,8-triaza-acenaphthylene-2-carboxylic acid [4-(4-methoxy-piperidin-1-ylmethyl)-phenyl]-amide] |  |  | 48 |  | > 100 | > 10 |  | > 100
CN(C)c1cc(NC(=O)c2sc3ncc(C#N)c4c3c2NC(=O)N4c2c(Cl)ccc3c2OCO3)ccc1CN1CCOCC1 [Cpd 27, 5-(5-chloro-benzo[1,3]dioxol-4-yl)-6-cyano-4-oxo-4,5-dihydro-3H-1-thia-3,5,8-triaza-acenaphthylene-2-carboxylic acid (3-dimethylamino-4-morpholin-4-ylmethyl-phenyl)-amide] | 16 | 0 | 34 | 7 |  |  |  | 
CC1COCC(C)N1Cc1ccc(NC(=O)c2sc3ncc(C#N)c4c3c2NC(=O)N4c2c(Cl)ccc3c2OCO3)cc1 (stereo not drawn) [Cpd 24, 5-(5-chloro-benzo[1,3]dioxol-4-yl)-6-cyano-4-oxo-4,5-dihydro-3H-1-thia-3,5,8-triaza-acenaphthylene-2-carboxylic acid [4-(3,5-dimethyl-morpholin-4-ylmethyl)-phenyl]-amide] | 7 | 12 | 24 | 14 |  |  |  | 
N#Cc1cnc2sc(C(=O)Nc3ccc(CN4CCC(F)(F)CC4)cc3)c3c2c1N(c1c(Cl)ccc2c1OCO2)C(=O)N3 [Cpd 54, 5-(5-chloro-benzo[1,3]dioxol-4-yl)-6-cyano-4-oxo-4,5-dihydro-3H-1-thia-3,5,8-triaza-acenaphthylene-2-carboxylic acid [4-(4,4-difluoro-piperidin-1-ylmethyl)-phenyl]-amide] |  |  | 11 |  | 15.3 | 3.37 |  | 12.3
N#Cc1cnc2sc(C(=O)N3CCC(O)CC3)c3c2c1N(c1c(Cl)ccc2c1OCO2)C(=O)N3 [Cpd 28, 5-(5-chloro-benzo[1,3]dioxol-4-yl)-2-(4-hydroxy-piperidine-1-carbonyl)-4-oxo-4,5-dihydro-3H-1-thia-3,5,8-triaza-acenaphthylene-6-carbonitrile] | 25 | 35 | 9 | 15 |  |  |  | 
Cc1cc(NC(=O)c2sc3ncc(C#N)c4c3c2NC(=O)N4c2c(Cl)ccc3c2OCO3)no1 [Cpd 34, 5-(5-chloro-benzo[1,3]dioxol-4-yl)-6-cyano-4-oxo-4,5-dihydro-3H-1-thia-3,5,8-triaza-acenaphthylene-2-carboxylic acid (5-methyl-isoxazol-3-yl)-amide] | 29 |  | 30 | 16 |  | > 1 |  | 
N#Cc1cnc2sc(C(=O)Nc3ccc(CN4CCCC(CO)C4)cc3)c3c2c1N(c1c(Cl)ccc2c1OCO2)C(=O)N3 (stereo not drawn) [Cpd 20, 5-(5-chloro-benzo[1,3]dioxol-4-yl)-6-cyano-4-oxo-4,5-dihydro-3H-1-thia-3,5,8-triaza-acenaphthylene-2-carboxylic acid [4-(3-hydroxymethyl-piperidin-1-ylmethyl)-phenyl]-amide] | 21 | 41 |  | 24 |  |  | 0.91 | 
